Measurements: paper PMC9697349, “Mouse Pharmacokinetics and In Vitro Metabolism of SH-11037 and SH-11008, Synthetic Homoisoflavonoids for Retinal Neovascularization” (Pharmaceutics, 2022)

Tests used:
Assay type in all cases: in vitro ADME
[1] = Stability of SH-11037 in dog plasma; settings: beagle, pH 7.4, SH-11037 1 µM, 37 °C, read-out: half-life (t1/2) of hydrolysis to SH-11008
Protocol: (§1) SH-11037 (1 μM) was incubated in triplicate in 0.1 M phosphate buffer (pH 7.4) or in mouse, dog, and human plasma to investigate its stability. SH-11037 (40 μM) in 50 vol% aqueous CH3CN was mixed with 0.1 M phosphate buffer (pH 7.4) or plasma diluted 3-fold with 0.1 M phosphate buffer (pH 7.4) to a final volume of 160 μL and a final concentration of 1 μM. The resulting solutions were then incubated at 37 °C in a shaking water bath. The incubations were terminated at selected times by adding 160 µL of ice-cold CH3CN containing glipizide (500 ng/mL) as the internal standard (IS). The resulting mixture was vortexed, sonicated, and centrifuged at 3000× g for 20 min. Aliquots of the supernatant were subjected to LC-MS/MS analysis described below in Section 2.6.2.
(§2) The LC-MS/MS system consisted of Agilent 1290 Infinity HPLC system and Agilent 6530 Accurate-Mass Quadrupole Time-of-Flight (Q-TOF) mass spectrometer equipped with dual AJS ESI ion source (Agilent Technologies Korea, Seoul, Korea). Chromatographic separation was performed on an Agilent Eclipse Plus C18 column (2.1 × 100 mm, 3.5 μm) with a Phenomenex Security Guard C18 guard column (4 × 20 mm) maintained at 40 °C. The mobile phase consisted of 0.1% formic acid in deionized water (A) and 0.1% formic acid in CH3CN (B): 0~2 min 5% B, 2~7 min to 95% B, and 7~10 min 95% B. Total run time including a 5 min equilibration time was 15 min. […]

[2] = Stability of SH-11037 in mouse plasma; settings: ICR, pH 7.4, SH-11037 1 µM, 37 °C, read-out: half-life (t1/2) of hydrolysis to SH-11008
Protocol: as §1, §2

[3] = Stability of SH-11037 in human plasma; settings: pH 7.4, SH-11037 1 µM, 37 °C, read-out: half-life (t1/2) of hydrolysis to SH-11008
Protocol: as §1, §2

Structure (SMILES): COc1ccc(CC2COc3cc(OC)c(OC)c(OC)c3C2=O)cc1OC(=O)[C@H](Cc1ccccc1)NC(=O)OC(C)(C)C (stereo partly drawn) [SH-11037]
- half-life at 1 µM [1]: 1.15 h
- half-life at 1 µM [2]: 1.08 s
- half-life at 1 µM [3]: 1.22 h
